From paper PMC7756582, “Prodrugs of γ‐Alkyl‐Modified Nucleoside Triphosphates: Improved Inhibition of HIV Reverse Transcriptase” (Angewandte Chemie (International Ed. in English), 2020) come the findings set out here.

SMILES strings stand for the structures.

This assay concerns the target T1, human DNA polymerase γ (Homo sapiens, UniProt P54098).
T1 construct: purchased Roboklon
T1 sequence (P54098 1-1239): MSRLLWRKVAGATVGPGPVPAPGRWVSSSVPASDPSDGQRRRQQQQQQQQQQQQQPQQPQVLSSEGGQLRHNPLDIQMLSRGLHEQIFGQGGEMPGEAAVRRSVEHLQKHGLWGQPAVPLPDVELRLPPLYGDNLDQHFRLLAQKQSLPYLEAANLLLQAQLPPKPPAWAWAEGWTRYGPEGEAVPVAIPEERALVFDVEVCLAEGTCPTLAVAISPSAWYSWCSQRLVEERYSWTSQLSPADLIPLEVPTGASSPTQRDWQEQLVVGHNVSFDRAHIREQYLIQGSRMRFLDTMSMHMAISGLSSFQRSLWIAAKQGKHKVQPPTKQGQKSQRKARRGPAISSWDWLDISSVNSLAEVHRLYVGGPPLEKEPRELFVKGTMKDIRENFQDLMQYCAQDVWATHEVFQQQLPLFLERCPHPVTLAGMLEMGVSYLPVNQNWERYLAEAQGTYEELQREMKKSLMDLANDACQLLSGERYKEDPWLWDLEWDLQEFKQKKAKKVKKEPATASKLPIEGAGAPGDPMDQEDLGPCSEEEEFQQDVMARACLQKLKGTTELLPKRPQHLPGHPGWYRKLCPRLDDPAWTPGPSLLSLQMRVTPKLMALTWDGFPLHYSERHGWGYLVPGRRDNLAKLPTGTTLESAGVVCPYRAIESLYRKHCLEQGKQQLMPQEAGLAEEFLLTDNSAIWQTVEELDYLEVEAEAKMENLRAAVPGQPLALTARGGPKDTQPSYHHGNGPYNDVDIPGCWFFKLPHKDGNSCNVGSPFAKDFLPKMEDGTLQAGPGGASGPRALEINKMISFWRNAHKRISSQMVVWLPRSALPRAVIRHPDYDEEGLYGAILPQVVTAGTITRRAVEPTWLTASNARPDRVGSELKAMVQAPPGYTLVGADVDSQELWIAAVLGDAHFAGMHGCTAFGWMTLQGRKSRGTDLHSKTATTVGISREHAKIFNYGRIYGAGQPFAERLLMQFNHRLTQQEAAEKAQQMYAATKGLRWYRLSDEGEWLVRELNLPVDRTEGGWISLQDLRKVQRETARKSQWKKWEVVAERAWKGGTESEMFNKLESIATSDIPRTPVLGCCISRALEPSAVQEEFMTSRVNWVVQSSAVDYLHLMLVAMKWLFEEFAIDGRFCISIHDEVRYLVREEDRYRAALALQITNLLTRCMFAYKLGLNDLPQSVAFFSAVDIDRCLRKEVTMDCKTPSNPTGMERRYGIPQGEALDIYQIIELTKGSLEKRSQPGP
In words: Primer extension assay with human DNA polymerase γ. It is filed as biochemical. Conditions: dNTPs 250 μM, Pol γ 4 U. How it is done: Two different set‐ups have been used. First, a mixture of dATP, dCTP, dGTP, and γ‐alkyl‐TTP (N*) or ‐d4TTP (T*) was used as a mixture. The results obtained from these experiments were compared to those in which just γ‐alkyl‐TTP (N) or d4TTP (T) was used. In each experiment a primer extension without added polymerase (negative control, ‐ lane) and an experiment in which all four canonical NTPs were added (positive control, +lane) were used as controls.
Anti-HIV activity assay: Inhibition of HIV-1(IIIB)- and HIV-2(ROD)-induced cytopathicity in wild-type CEM/0 and thymidine kinase-deficient CEM/TK- cell cultures was measured in microtiter 96-well plates containing ~3·105 CEM cells/mL infected with 100 CCID50 of HIV per milliliter and containing appropriate dilutions of the test compounds. After 4−5 days of incubation at 37 °C in a CO2-controlled humidified atmosphere, CEM giant (syncytium) cell formation was examined microscopically. The EC50 (50% effective concentration) was defined as the compound concentration required to inhibit HIV-induced giant cell formation by 50%. […]
2) For HIV- RT assay: The final assay solution (10 µL) consists of 50 mM Tris-HCl (pH 8.6 at 22 °C), 10 mM MgCl2, 40mM KCl, dNTPs 66 µM, HIV RT 6 U, Hybrid 0.32 µM in a reaction volume of 10 µL, incubated 37 °C for 15 min, 80 °C for 3 min; 50 mA, 45w for 4 h. […] The result was visualized by fluorescence imaging. […]

With `Cc1cn(C2C=CC(COP(=O)(O)OP(=O)(O)OP(=O)(O)O)O2)c(=O)[nH]c1=O` (stereo not shown) [2 t, d4TTP, reference compound], the “primer extension by DNA polymerase γ (substrate properties)” value is on record as “not substrates”.
